From US9086425B2, “Carbamylated proteins and risk of cardiovascular disease” (The Cleveland Clinic Foundation, priority 2007, dated 2015)

What was measured:
homocitrulline levels = experiment: Effect of simvastatin on plasma levels of homocitrulline (randomized placebo-controlled study); format: in vivo, human; details: 6 weeks of treatment
Procedure: This study was intended to evaluate the effect of statin therapy on homocitrulline levels. Specimens came from archival materials from a randomized, double-blind, parallel-group, 4-arm, placebo-controlled, multi-center study conducted in 1997. Prior to randomization, subjects underwent a 4-week diet/placebo run-in period. Eligible patients were then randomized to 1 of 4 treatments (ratio 1:1:1:1): placebo, simvastatin 20, 40, or 80 mg, and received 6 weeks of treatment. One hundred and eighty eight out of 195 enrolled men and women completed the study. Subjects were required to have elevated TG (300 to 900 mg/dL), and many had comorbidities associated with the metabolic syndrome; however, though those with morbid obesity, uncontrolled hypertension, or severe hyperlipidemia were excluded. Archived serum and/or plasma that were drawn predose on Day 1 and on Day 42 were used in this analysis.

scavenger receptor SR-A1 = target: T1, scavenger receptor SR-A1 (Mus musculus, UniProt P30204); experiment: Carbamylated LDL binding studies with SR-A1 transfected cells / SR-A1 inhibitor; format: cell-based, murine; details: data not shown
T1 construct: expressed in transfected cells; host or cells: CHO cells, stably transfected
T1 sequence (P30204 1-458): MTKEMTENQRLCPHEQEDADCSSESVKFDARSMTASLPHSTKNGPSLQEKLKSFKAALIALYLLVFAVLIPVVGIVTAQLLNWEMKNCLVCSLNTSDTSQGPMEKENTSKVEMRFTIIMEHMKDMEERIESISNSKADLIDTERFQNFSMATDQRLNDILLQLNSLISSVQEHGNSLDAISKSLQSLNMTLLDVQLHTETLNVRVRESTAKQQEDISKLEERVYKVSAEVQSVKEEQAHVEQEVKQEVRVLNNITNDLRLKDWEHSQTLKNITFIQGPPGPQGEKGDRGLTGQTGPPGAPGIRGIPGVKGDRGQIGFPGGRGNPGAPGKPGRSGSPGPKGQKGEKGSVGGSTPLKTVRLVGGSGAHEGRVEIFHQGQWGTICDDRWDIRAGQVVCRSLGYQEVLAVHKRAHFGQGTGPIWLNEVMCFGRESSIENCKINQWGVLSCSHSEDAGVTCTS

[1] = tested on: aortic smooth muscle cells (both human and bovine); experiment: Aortic smooth muscle cell proliferation; format: cell-based; details: SR-A1 inhibitor present in culture media
Description: 1,1′-dioctadecyl-3,3,3′,3′-tetramethylyindocarbocyanine perchlorate (DiI) was obtained from Molecular Probes (Eugene, Oreg.). Organic solvents were obtained from Fisher Scientific Co. (Pittsburgh, Pa.). Caspase-3/7 assay kit (Lot #220150) was purchased from Promega (Madison, Wis.) and cell proliferation ELISA, BrdU (colorimetric) kit (Lot #11647229001) was from Roche (Indianapolis, Ind.). All other reagents and materials were obtained from Sigma Chemical Co. (St. Louis, Mo.) unless otherwise indicated. Protein content was determined by the Markwell-modified Lowry protein assay^44. Human LDL and HDL were isolated from whole blood of healthy volunteers by established methods^45. Human myeloperoxidase (MPO) (donor: hydrogen peroxide, oxidoreductase, EC 1.11.1.7), NO2-LDL and AcLDL were prepared as described in Podrez et al^14.
In a separate series of studies, we therefore examined the impact of MPO-catalyzed lipoprotein carbamylation on these processes.

| inhibition of specific binding of carbamylated LDL (scavenger receptor SR-A1) | Compound | Median % Change (SD) of homocitrulline (homocitrulline levels; simvastatin 20 mg, Day 42 vs predose Day 1, archived serum and/or plasma) | Median % Change (SD) of homocitrulline (homocitrulline levels; simvastatin 40 mg, Day 42 vs predose Day 1, archived serum and/or plasma) | Median % Change (SD) of homocitrulline (homocitrulline levels; simvastatin 80 mg, Day 42 vs predose Day 1, archived serum and/or plasma) | Median % Change (SD) of homocitrulline (homocitrulline levels; simvastatin combined (20, 40, 80 mg), Day 42 vs predose Day 1) | effect on proliferation induced by carbamylated LDL [1] |
| --- | --- | --- | --- | --- | --- | --- |
|  | CCC(C)(C)C(=O)O[C@H]1C[C@@H](C)C=C2C=C[C@H](C)[C@H](CC[C@@H]3C[C@@H](O)CC(=O)O3)[C@H]21 [Simvastatin, simvastatin] | −100.0 (102.67) % | −100.0 (67.77) % | −63.44 (89.63) % | −100.0 (84.03) % |  |
| over 80% | fucoidin |  |  |  |  | markedly suppressed |
